According to patent US7309702B2, “Arylpiperazines having activity at the serotonin 1A receptor” (Avera Pharmaceuticals, Inc., priority 1997, dated 2007):
Counter-ions that a name gives are not always drawn.

Structure (SMILES) | melting point [°C]
O=C(C1CCCCC1)C(CCN1CCN(c2ccccn2)CC1)c1ccccc1.O=C(O)C(=O)O (centres unmarked) [Example 3, 1-(2-pyridyl)-4-[3-(cyclohexanecarbonyl)-3-(phenyl)propyl]piperazine oxalate] | 185 to 187
COc1ccccc1N1CCN(CCC(C(=O)C2CCCC2)c2ccccc2)CC1 (centres unmarked) (as salt: hydrochloride) [Example 7, 1-(2-methoxyphenyl)-4-[3-(cyclopentanecarbonyl)-3-(phenyl)propyl]piperazine dihydrochloride] | 210 to 212
COc1ccccc1N1CCN(CCC(C(=O)C2CCCCCC2)c2ccccc2)CC1 (centres unmarked) (as salt: hydrochloride) [Example 6, 1-(2-methoxyphenyl)-4-[3-(cycloheptanecarbonyl)-3-(phenyl)propyl]piperazine dihydrochloride] | 193 to 194

The next lines start with the values.

melting point [°C] | Structure (SMILES)
192 to 193 | COc1ccccc1N1CCN(CCC(C)(C(=O)c2ccccc2)c2ccccc2)CC1.O=C(O)C(=O)O (centres unmarked) [Example 5, 1-(2-methoxyphenyl)-4-[3-(benzoyl)-3-(phenyl)butyl]piperazine oxalate]
100 to 102 | COc1ccccc1N1CCN(CCC(c2ccccc2)C(O)C2CCCCC2)CC1.O=C(O)C(=O)O (centres unmarked) [Example 8, 1-(2-methoxyphenyl)-4-[4-(cyclohexyl)-4-(hydroxy)-3-(phenyl)butyl]piperazine oxalate]
192.81 | COc1ccccc1N1CCN(CCC(C)(C(=O)C2CCCCC2)c2ccccc2)CC1 (centres unmarked) [Example 9, 1-(2-methoxyphenyl)-4-[3-(cyclohexanecarbonyl)-3-(phenyl)butyl]piperazine]
149 to 151 | COc1ccccc1N1CCN(CCC(C(=O)C2CCCCC2)c2ccccc2)CC1.O=C(O)C(=O)O (centres unmarked) [Example 2, 1-(2-methoxyphenyl)-4-[3-(cyclohexanecarbonyl)-3-(phenyl)propyl]piperazine oxalate]
161 to 163 | COc1ccccc1N1CCN(CCC(C(=O)c2ccccc2)c2ccccc2)CC1.O=C(O)C(=O)O (centres unmarked) [Example 1, 1-(2-methoxyphenyl)-4-[3-(benzoyl)-3-(phenyl)propyl]piperazine Oxalate]
